Our source for the AC50 values is ChEMBL document CHEMBL5291721, “A preclinical secondary pharmacology resource illuminates target-adverse drug reaction associations of marketed drugs” (Nat Commun, 2023).

For one test, the target named is T1, Adenosine receptor A3 (Homo sapiens, UniProt P0DMS8).
T1 sequence (P0DMS8 whole entry): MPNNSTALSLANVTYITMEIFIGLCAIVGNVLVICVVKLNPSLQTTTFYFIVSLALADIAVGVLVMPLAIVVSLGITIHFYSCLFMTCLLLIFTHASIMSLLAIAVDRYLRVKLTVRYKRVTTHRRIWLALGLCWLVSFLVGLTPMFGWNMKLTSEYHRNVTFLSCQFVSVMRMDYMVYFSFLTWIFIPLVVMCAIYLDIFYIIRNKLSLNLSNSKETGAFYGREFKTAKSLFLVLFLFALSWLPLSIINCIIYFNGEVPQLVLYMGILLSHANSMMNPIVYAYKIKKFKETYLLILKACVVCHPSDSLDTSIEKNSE

The target of test [1] is T2, Alpha-2A adrenergic receptor (Homo sapiens, UniProt P08913).
T2 sequence (P08913 whole entry): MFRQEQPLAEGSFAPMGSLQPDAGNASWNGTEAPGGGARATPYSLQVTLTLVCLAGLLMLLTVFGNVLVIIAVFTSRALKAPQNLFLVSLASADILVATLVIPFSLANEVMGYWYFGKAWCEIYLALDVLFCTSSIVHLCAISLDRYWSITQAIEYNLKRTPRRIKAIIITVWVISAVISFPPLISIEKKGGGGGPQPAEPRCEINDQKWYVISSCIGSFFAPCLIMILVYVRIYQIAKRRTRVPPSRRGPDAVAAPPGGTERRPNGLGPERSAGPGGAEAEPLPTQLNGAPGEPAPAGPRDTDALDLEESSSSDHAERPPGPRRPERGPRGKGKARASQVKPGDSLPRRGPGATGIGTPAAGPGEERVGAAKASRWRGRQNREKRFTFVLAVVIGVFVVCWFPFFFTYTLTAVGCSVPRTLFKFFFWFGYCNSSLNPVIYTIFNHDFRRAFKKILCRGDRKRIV
The test is classed as functional, cell-based.

Test [2] concerns the target Beta-2 adrenergic receptor (Homo sapiens, UniProt P07550).
The target of the next test is T3, Endothelin-1 receptor (Homo sapiens, UniProt P25101).
T3 sequence (P25101 whole entry): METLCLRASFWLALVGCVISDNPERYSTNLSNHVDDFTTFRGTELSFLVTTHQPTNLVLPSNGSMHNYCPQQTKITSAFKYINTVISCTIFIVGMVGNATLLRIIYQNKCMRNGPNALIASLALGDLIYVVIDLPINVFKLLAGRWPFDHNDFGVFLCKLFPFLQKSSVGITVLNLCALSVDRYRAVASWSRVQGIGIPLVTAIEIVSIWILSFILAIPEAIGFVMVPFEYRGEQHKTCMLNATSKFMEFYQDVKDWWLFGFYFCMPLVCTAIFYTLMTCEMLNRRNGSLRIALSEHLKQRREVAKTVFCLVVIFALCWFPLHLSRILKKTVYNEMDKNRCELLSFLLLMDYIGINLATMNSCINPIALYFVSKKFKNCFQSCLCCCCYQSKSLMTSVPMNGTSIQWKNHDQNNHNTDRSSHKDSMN

In another test the target is T4, Estrogen receptor (Homo sapiens, UniProt P03372).
T4 sequence (P03372 whole entry): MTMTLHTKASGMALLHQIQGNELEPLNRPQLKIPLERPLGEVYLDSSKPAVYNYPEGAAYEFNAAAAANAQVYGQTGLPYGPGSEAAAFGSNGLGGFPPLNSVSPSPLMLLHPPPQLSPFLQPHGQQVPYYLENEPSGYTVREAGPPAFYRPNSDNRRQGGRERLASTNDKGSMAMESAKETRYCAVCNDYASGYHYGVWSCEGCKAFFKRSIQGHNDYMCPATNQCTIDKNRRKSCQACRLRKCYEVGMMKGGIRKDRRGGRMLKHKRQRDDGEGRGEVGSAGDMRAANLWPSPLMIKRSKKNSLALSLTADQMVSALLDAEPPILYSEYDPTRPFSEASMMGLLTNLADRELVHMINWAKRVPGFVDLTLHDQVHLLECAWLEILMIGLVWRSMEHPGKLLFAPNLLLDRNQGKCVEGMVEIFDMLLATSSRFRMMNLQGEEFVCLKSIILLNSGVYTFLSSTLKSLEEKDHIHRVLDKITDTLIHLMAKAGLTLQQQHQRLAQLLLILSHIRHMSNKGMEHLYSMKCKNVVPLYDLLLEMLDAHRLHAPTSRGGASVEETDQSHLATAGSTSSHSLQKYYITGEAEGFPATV

The next test concerns the target Melanocortin receptor 3 (Homo sapiens, UniProt P41968).
Another test concerns the target Motilin receptor (Homo sapiens, UniProt O43193).
Test [3] deals with Delta-type opioid receptor (Homo sapiens, UniProt P41143).
Chain of Delta-type opioid receptor (P41143 whole entry): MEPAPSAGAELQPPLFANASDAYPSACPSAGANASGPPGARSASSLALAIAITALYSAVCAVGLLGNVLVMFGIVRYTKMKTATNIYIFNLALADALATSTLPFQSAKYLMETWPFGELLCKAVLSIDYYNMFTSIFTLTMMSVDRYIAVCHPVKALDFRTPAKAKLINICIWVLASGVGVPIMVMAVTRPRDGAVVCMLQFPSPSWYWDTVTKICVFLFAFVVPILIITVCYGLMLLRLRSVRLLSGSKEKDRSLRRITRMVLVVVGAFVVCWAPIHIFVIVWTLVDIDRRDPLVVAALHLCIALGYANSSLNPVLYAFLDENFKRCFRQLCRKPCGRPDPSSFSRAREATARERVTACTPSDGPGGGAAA
The target of test [4] is 3',5'-cyclic-AMP phosphodiesterase 4D (Homo sapiens, UniProt Q08499). The test is classed as functional.
Chain of 3',5'-cyclic-AMP phosphodiesterase 4D (Q08499 whole entry): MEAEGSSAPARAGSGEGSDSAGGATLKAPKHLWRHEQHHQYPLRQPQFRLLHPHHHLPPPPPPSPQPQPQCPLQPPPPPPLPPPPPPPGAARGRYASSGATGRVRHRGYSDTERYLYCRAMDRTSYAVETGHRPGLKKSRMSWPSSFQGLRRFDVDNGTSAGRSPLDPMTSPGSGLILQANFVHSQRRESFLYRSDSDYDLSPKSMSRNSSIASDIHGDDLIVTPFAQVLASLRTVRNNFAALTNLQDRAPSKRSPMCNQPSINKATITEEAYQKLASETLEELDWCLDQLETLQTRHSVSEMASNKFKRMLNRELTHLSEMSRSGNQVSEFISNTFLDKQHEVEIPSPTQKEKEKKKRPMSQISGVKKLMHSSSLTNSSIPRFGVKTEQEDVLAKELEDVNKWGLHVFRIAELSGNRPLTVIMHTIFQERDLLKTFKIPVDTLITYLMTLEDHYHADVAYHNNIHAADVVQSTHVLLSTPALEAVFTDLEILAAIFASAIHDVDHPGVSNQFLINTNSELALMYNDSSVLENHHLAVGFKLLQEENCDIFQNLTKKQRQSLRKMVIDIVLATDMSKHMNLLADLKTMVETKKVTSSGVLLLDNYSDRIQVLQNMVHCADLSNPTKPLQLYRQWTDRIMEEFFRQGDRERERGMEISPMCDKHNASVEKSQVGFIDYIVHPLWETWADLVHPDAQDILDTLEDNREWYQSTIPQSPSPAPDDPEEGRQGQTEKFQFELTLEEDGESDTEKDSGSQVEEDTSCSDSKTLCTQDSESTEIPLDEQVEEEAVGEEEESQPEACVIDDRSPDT
A further test deals with T5, Thromboxane A2 receptor (Homo sapiens, UniProt P21731).
T5 sequence (P21731 whole entry): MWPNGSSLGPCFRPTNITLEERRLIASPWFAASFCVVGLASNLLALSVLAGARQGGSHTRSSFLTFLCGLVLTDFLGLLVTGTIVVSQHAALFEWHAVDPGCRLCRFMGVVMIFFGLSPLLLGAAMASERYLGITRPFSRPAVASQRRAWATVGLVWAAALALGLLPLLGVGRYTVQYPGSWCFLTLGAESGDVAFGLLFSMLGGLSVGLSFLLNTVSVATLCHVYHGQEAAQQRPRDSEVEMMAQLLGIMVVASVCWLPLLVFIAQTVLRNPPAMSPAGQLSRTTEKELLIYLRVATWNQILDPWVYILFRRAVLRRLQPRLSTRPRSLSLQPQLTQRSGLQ

For test [5], the target named is Sodium-dependent noradrenaline transporter (Homo sapiens, UniProt P23975).
Chain of Sodium-dependent noradrenaline transporter (P23975 whole entry): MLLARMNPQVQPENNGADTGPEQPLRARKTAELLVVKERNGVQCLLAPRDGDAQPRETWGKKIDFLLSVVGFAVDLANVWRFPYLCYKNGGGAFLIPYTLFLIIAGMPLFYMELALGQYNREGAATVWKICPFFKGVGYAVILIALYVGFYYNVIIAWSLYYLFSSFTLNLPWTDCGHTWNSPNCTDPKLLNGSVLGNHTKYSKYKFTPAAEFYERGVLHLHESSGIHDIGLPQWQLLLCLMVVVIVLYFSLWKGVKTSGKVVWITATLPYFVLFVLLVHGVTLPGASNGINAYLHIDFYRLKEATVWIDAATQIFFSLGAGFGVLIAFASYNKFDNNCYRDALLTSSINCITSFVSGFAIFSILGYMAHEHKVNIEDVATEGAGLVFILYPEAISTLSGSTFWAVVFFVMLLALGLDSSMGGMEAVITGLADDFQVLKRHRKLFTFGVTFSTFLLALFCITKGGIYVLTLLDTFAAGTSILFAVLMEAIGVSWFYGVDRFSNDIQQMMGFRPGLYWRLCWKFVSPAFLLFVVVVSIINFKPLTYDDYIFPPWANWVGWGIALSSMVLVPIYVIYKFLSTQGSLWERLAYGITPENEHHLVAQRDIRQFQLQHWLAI
Further: assay procedure not described here.

Chain of Beta-2 adrenergic receptor (P07550 whole entry): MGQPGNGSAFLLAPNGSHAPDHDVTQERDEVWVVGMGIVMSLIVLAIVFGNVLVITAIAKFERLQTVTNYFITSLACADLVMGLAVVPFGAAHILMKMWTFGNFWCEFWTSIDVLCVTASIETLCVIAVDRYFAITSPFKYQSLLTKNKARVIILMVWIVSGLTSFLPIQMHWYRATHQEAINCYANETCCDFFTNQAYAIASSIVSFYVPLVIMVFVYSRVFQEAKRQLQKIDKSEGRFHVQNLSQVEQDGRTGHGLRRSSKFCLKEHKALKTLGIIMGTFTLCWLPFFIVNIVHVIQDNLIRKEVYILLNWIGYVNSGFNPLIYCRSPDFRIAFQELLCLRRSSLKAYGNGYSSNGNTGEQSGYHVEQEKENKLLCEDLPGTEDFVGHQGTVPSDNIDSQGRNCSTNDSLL
Chain of Motilin receptor (O43193 whole entry): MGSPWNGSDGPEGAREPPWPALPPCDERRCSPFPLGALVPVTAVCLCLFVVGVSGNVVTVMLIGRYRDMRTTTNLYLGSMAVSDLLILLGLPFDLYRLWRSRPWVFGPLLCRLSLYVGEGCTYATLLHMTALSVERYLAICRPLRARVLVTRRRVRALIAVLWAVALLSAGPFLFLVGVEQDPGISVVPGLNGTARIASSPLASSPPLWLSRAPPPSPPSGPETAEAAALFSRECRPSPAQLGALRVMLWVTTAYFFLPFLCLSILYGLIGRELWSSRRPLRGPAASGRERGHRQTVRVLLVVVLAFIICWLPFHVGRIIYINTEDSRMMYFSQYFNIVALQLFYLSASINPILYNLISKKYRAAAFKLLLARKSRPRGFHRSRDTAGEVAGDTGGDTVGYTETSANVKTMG
Chain of Melanocortin receptor 3 (P41968 whole entry): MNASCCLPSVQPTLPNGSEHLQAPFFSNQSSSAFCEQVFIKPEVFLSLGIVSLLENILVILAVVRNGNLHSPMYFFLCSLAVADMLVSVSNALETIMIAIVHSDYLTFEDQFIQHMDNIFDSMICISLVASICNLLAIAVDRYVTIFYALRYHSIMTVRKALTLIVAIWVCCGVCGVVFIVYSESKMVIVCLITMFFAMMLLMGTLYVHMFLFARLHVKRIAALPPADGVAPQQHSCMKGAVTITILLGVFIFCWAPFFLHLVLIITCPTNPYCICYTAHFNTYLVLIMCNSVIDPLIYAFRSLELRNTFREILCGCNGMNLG

Broadly, the AC50 is the concentration at which the activity in the assay is half-maximal. Low values mean activity at low concentration, high ones activity only at high concentration. On to `CCN(CC)C(=O)C1CN2CCc3cc(OC)c(OC)cc3C2CC1OC(C)=O` (configuration not stated) [BENZQUINAMIDE], for which the AC50 on Adenosine receptor A3 is > 30 µM; in test [1], > 30 µM; in [2] it was > 10 µM; at Endothelin-1 receptor, > 30 µM; on Estrogen receptor, > 30 µM; at Melanocortin receptor 3, > 30 µM. In addition, the AC50 on Motilin receptor is > 30 µM; in test [3] it was > 30 µM; in test [4] it was > 30 µM; at Thromboxane A2 receptor, > 10 µM; in [5], > 30 µM.
On to `CCC(C)(Oc1ccc(C2(c3ccc(OC(C)(CC)C(=O)O)cc3)CCCCC2)cc1)C(=O)O` (configuration not stated) [CLINOFIBRATE], for which the AC50 at Adenosine receptor A3 was 20 µM; in [1], > 30 µM; in test [2], > 30 µM; on Endothelin-1 receptor it was > 30 µM; on Estrogen receptor it was > 30 µM; on Melanocortin receptor 3 it was > 30 µM. Besides, the AC50 (at Motilin receptor; in [3]; in test [4]; at Thromboxane A2 receptor; in [5]) was > 30 µM in each case.
In the case of `CCCCC[C@H](O)/C=C/[C@H]1[C@H](O)CC(=O)[C@@H]1C/C=C\CCCC(=O)O` [DINOPROSTONE], the half-maximal activity concentration (AC50) is > 30 µM on Adenosine receptor A3; > 30 µM in [1]; > 30 µM in test [2]; > 30 µM at Endothelin-1 receptor; 23 µM at Estrogen receptor; > 30 µM at Melanocortin receptor 3. The AC50 at Motilin receptor is > 30 µM; in [3], > 30 µM; in [4], 11 µM; on Thromboxane A2 receptor it was 3.5 µM; in test [5], > 30 µM.
Regarding `CC(C)c1cc2c(cc1S(=O)(=O)O)[C@@]1(C)CCC[C@@](C)(C(=O)O)[C@@H]1CC2` [ECABET], the AC50 (on Adenosine receptor A3; in test [1]; in test [2]; on Endothelin-1 receptor; on Estrogen receptor; on Melanocortin receptor 3) was > 30 µM in each case. Moreover, the AC50 (at Motilin receptor; in [3]; in test [4]; on Thromboxane A2 receptor; in test [5]) was > 30 µM each time.
Regarding `CCCN(CC)C(CC)C(=O)Nc1c(C)cccc1C` (configuration not stated) [ETIDOCAINE], the half-maximal activity concentration (AC50) (at Adenosine receptor A3; in [1]; in test [2]; at Endothelin-1 receptor; on Estrogen receptor; on Melanocortin receptor 3) was > 30 µM in each case. For the same molecule, the AC50 (on Motilin receptor; in test [3]; in [4]; at Thromboxane A2 receptor; in test [5]) was > 30 µM throughout.
Regarding `Clc1ccc(C(Cn2ccnc2)OCc2ccc(Sc3ccccc3)cc2)c(Cl)c1` (configuration not stated) [FENTICONAZOLE], the AC50 on Adenosine receptor A3 was 6.4 µM; in test [1] it was > 30 µM; in test [2] it was > 30 µM; at Endothelin-1 receptor, > 30 µM; at Estrogen receptor, > 10 µM; on Melanocortin receptor 3, 21 µM. Moreover, the AC50 is 23 µM on Motilin receptor, > 30 µM in test [3], 18 µM in test [4] and > 30 µM at Thromboxane A2 receptor.
Take `CC#CCn1c(N2CCC[C@@H](N)C2)nc2c1c(=O)n(Cc1nc(C)c3ccccc3n1)c(=O)n2C` [LINAGLIPTIN]: the concentration at half-maximal activity (AC50) on Adenosine receptor A3 was 26.2 µM; in test [1], > 10 µM; in test [2], > 10 µM; at Estrogen receptor it was > 30 µM; at Melanocortin receptor 3 it was > 30 µM; at Motilin receptor, > 10 µM. For the same molecule, the AC50 in test [3] is > 10 µM; in test [4] it was > 10 µM; on Thromboxane A2 receptor, > 30 µM; in test [5], > 30 µM.
Consider `CN(c1nccc(=O)[nH]1)C1CCN(c2nc3ccccc3n2Cc2ccc(F)cc2)CC1` [MIZOLASTINE], for which the concentration at half-maximal activity (AC50) (on Adenosine receptor A3; in test [1]; in test [2]; on Endothelin-1 receptor; at Estrogen receptor; at Melanocortin receptor 3) was > 30 µM throughout. The AC50 at Motilin receptor was > 30 µM; in test [3] it was > 30 µM; in test [4], 13 µM; on Thromboxane A2 receptor, > 30 µM; in test [5], > 30 µM.
Take `CCCOC(C(=O)OC1CCN(C)CC1)(c1ccccc1)c1ccccc1` [PROPIVERINE]: the AC50 (at Adenosine receptor A3; in test [1]; in test [2]; at Endothelin-1 receptor; at Estrogen receptor; at Melanocortin receptor 3) was > 30 µM throughout. Further, the half-maximal activity concentration (AC50) on Motilin receptor is 15 µM; in test [3], > 30 µM; in test [4] it was > 30 µM; on Thromboxane A2 receptor it was > 30 µM; in test [5], > 30 µM.
Turning to `Cc1cc2nc3c(=O)[nH]c(=O)nc-3n(C[C@H](O)[C@H](O)[C@H](O)COP(=O)(O)O)c2cc1C` [RIBOFLAVIN 5'-PHOSPHATE], the concentration at half-maximal activity (AC50) at Adenosine receptor A3 is > 30 µM; in [2] it was > 30 µM; on Endothelin-1 receptor, > 30 µM; on Estrogen receptor, 3.7 µM; at Melanocortin receptor 3 it was > 30 µM; at Motilin receptor it was > 30 µM. Besides, the AC50 (in [3]; in [4]; at Thromboxane A2 receptor; in test [5]) was > 30 µM throughout.
In the case of `C=CC(N)CCC(=O)O` (configuration not stated) [VIGABATRIN], the AC50 (at Adenosine receptor A3; in [1]; in test [2]; at Estrogen receptor; on Melanocortin receptor 3; at Motilin receptor) was > 10 µM in each case. Further, the AC50 in [3] was > 30 µM; in test [4], > 30 µM; at Thromboxane A2 receptor it was > 10 µM; in test [5], 21.7 µM.
Consider `N#C[C@@H]1CCCN1C(=O)CNC12CC3CC(CC(O)(C3)C1)C2` [VILDAGLIPTIN], for which the AC50 was > 30 µM at Adenosine receptor A3; > 30 µM in test [1]; > 10 µM in test [2]; > 30 µM at Estrogen receptor; > 30 µM on Melanocortin receptor 3; > 10 µM at Motilin receptor. Also, the concentration at half-maximal activity (AC50) (in test [3]; in test [4]; on Thromboxane A2 receptor; in test [5]) was > 30 µM each time.
